pIC50: −log10 of the molar value.
Key:
Format in all cases: biochemical
[1] = biological target: T1, CDK16 (analog-sensitive, AS-GST-CDK16) (Homo sapiens, UniProt Q00536, F240G); assay: in vitro kinase assay with [γ-32P]-ATP, dose response
T1 construct: N-terminal GST fusion, full-length, purified from E. coli; with CCNY

CDK16 (WT-GST-CDK16) [2] = biological target: T2, CDK16 (WT-GST-CDK16) (Homo sapiens, UniProt Q00536); assay: as above
T2 construct: N-terminal GST fusion, full-length, purified from E. coli; with CCNY
T2 sequence (Q00536 whole entry, the tested form may be a part): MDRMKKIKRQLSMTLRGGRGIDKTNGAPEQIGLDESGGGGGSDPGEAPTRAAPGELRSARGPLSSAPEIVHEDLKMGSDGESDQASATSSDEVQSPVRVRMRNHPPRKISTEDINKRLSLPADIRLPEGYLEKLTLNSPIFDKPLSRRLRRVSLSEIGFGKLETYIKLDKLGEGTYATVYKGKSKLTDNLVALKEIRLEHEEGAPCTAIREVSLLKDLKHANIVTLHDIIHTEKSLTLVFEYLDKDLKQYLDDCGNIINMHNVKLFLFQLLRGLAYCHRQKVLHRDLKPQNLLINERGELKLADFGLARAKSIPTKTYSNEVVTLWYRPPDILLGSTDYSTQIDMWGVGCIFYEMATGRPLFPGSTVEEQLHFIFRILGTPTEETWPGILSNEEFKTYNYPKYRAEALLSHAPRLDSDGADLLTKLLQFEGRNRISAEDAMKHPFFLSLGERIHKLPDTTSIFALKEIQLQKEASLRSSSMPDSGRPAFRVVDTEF
T2 sequence (Q8ND76 2-341 partner): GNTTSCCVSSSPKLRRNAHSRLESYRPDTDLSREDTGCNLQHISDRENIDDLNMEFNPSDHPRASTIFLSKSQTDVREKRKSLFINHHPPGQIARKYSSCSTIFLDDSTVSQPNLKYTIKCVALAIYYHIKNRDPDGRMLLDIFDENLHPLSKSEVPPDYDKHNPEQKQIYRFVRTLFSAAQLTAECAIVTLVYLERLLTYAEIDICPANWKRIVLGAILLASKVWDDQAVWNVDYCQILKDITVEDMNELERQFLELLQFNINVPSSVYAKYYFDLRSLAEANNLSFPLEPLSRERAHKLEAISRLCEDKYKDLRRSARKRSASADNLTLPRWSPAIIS

CDK16 (WT-GST-CDK16) [3] = biological target: T2, CDK16 (WT-GST-CDK16); assay: in vitro kinase assay, thiophosphate transfer to CCNY

T1 sequence (Q00536 whole entry F240G, the tested form may be a part): as the sequence (Q00536 whole entry, the tested form may be a part) above, with F240G counted along it
T1 sequence (Q8ND76 2-341 partner): as the sequence (Q8ND76 2-341 partner) above

Row | pIC50 [1] | pIC50 (CDK16 (WT-GST-CDK16) [2]) | SMILES | in vitro kinase assay, thiophosphate transfer to CCNY (CDK16 (WT-GST-CDK16) [3])
1 | 5.91 | 5.36 | Cc1cccc(Cc2nn(C(C)(C)C)c3ncnc(N)c23)c1 [3MBPP1, 1-(tert-butyl)-3-(3-methylbenzyl)-1H-pyrazolo[3,4-d]pyrimidin-4-amine] | 
2 |  |  | Nc1ncnc2c1ncn2[C@@H]1O[C@H](CO[P@](=O)(O)O[P@](=O)(O)O[P@@](=O)(O)S)[C@@H](O)[C@H]1O [ATPγS] | WT-CDK16 used ATPγS to phosphorylate GST-CCNY, it could not use the N^6-modified bulky forms

Reference: publication PMC6467995, “Phosphoregulation of the oncogenic protein regulator of cytokinesis 1 (PRC1) by the atypical CDK16/CCNY complex” (Experimental & Molecular Medicine, 2019)
